# Data as given in patent US5137905A, “Heterocyclic acetylenic amines having central nervous system activity” (The Upjohn Company, priority 1991, dated 1992).
# Read-outs that look alike come from different tables or passages of the source.
# Legend:
# [1] = system: oxotremorine-induced body tremor; test: Oxotremorine antagonist assay (body tremor); assay type: in vivo, mice
# Method: Oxotremorine antagonist assays were performed on groups of six mice weighing 18-22 g. Each was dosed intraperitoneally with the test compound prepared in 0.25% methylcellulose and were placed in individual cages. Twenty minutes later the mice were injected subcutaneously with 0.5 mg/kg of oxotremorine dissolved in saline. Ten minutes later the mice were scored for body tremor. Doses of the compound under study began at 100 mg/kg and were decreased at a 0.5 log interval until no responders were obtained.
# [2] = target: CNS cholinergic receptor; test: CNS cholinergic receptor binding, oxotremorine M ligand; conditions: tritiated oxotremorine M; read-out: CNS Cholinergic Receptor Binding Assays K1 Oxotremorine
# [3] = target: CNS cholinergic receptor; conditions: read-out: CNS Cholinergic Receptor Binding Assays K1 QNB
# [4] = Mus musculus, ip; read-out: Oxot. Antagonist Tremor (ED50)
# [5] = tritiated quinuclidine benzylate (QNB)
# [6] = Mus musculus, ip, read-out: Oxot. Antagonist Tremor (ED50)
Compound,"ED50 [1, 4] [mg/kg]",Ki [2] [nM],"Ki [3, 5] [nM]","ED50 [1, 6] [mg/kg]",Ki [3] [nM]
"CCN(CC)CC#CCn1ccn(C)c1=O [Compound 4, 1-[4-(Diethylamino)-2-butynyl]-1,3-dihydro-3-methyl-2H-imidazol-2-one]",> 100,563,> 10000,,
"Cn1ccn(CC#CCn2ccnc2)c1=O [Compound 6, 1,3-Dihydro-1-[4-(1H-imidazol-1-yl)-2-butynyl]-3-methyl-2H-imidazol-2-one]",> 100,35,> 10000,,
"Cc1cncn1CC#CCn1ccn(C)c1=O [Compound 7, 1,3-Dihydro-1-methyl-3-[4-(5-methyl-1H-imidazol-1-yl)-2-butynyl]-2H-imidazol-2-one]",> 100,39,614,,
"CC(C#CCN1CCCC1)N1CCN(C)C1=O (centres unmarked) [Compound 22, 1-Methyl-3-[1-methyl-4-(1-pyrrolidinyl)-2-butynyl]-2-imidazolidinone]",,,,37,
"CCN(CC)CC#CCN1CCNC1=O [Compound 23, 1-[4-(Diethylamino)-2-butynyl]-2-imidazolidinone]",> 100,425,> 10000,,
"CCN(CC)CC#CCN1CCN(C)C1=O [Compound 24, 1-[4-(Diethylamino)-2-butynyl]-3-methyl-2-imidazolidinone]",> 100,132,> 10000,,
"O=C1NCCN1CC#CCn1ccnc1 [Compound 25, 1-[4-(1H-Imidazol-1-yl)-2-butynyl]-2-imidazolidinone]",> 100,62,> 10000,,
"CC(=O)N1CCN(CC#CCn2cncc2C)C1=O [Compound 26, 1-Acetyl-3-[4-(5-methyl-1H-imidazol-1-yl)-2-butynyl]-2-imidazolidinone]",45,147,> 10000,,
"Cc1cncn1CC#CCN1CCNC1=O [Compound 27, 1-[4-(5-Methyl-1H-imidazol-1-yl)-2-butynyl]-2-imidazolidinone]",> 100,138,> 10000,,
"CN1CCN(CC#CCn2ccnc2)C1=O [Compound 28, 1-[4-(1H-Imidazol-1-yl)-2-butynyl]-3-methyl-2-imidazolidinone]",,2,,> 100,1870
"Cc1cncn1CC#CCN1CCN(C)C1=O [Compound 29, 1-Methyl-3-[4-(5-methyl-1H-imidazol-1-yl)-2-butynyl]-2-imidazolidinone]",> 100,9,381,,
"CCN1CCN(CC#CCN2CCCC2)C1=O [Compound 30, 1-Ethyl-3-[4-(1-pyrrolidinyl)-2-butynyl]-2-imidazolidinone]",> 30,697,> 10000,,
"CC(C#CCN1CCCC1)N1CCNC1=O (centres unmarked) [Compound 31, 1-[1-Methyl-4-(1-pyrrolidinyl)-2-butynyl]-2-imidazolidinone]",> 30,15,135,,
"CC(C#CCN(C)C)N1CCN(C)C1=O (centres unmarked) [Compound 32, 1-[4-(Dimethylamino)-1-methyl-2-butynyl]-3-methyl-2-imidazolidinone]",> 100,33,> 10000,,
"CN(C)CC#CCN1CCNC1=O [Compound 33, 1-[4-(Dimethylamino)-2-butynyl]-2-imidazolidinone]",> 100,43,> 10000,,
"CCN(CC)CC#CC(C)N1CCN(C)C1=O (centres unmarked) [Compound 34, 1-[4-(Diethylamino)-1-methyl-2-butynyl]-3-methyl-2-imidazolidinone]",> 100,165,1980,,
"CN(C)CC#CCN1C(=O)CN(C)C1=O [Compound 41, 3-[4-(Dimethylamino)-2-butynyl]-1-methyl-2,4-imidazolidinedione]",,86,> 10000,,
"C(#C[C@@H]1CCCN1)CN1CCCC1 [Compound 50B, (S)-1-[3-(2-pyrrolidinyl)-2-propynyl]pyrrolidine]",,1300,> 10000,,
